Assay: Moisture loss or gain of filled capsules exposed to a 50% RH environment until equilibrium
Assay type: physicochemical
Settings: 50% R.H. environment
Procedure: An alternative method for evaluating the level of water required to provide a stable hygroscopic formulation involves the preparation of capsules containing different water contents and then quantifying moisture loss or gain when exposed to a 50% RH environment (middle of acceptable RH range for capsules 35% RH to 65% RH). Maltitol, a sugar which is also a hygroscopic excipient, was dissolved in water to produce several aqueous maltitol solutions of concentration 16, 18, 20, 22, 24, 26, 28, 30, 32, 34 and 36% water in maltitol. Both gelatin and HPMC capsules were filled with the various concentrations of solution and the capsules were sealed by banding. The capsules were then exposed to a 50% R.H environment and allowed the capsules to re-equilibrate.
Weight loss (and water loss) ceased when the capsules shell content was in equilibrium with the capsule shell and with the 50% R.H. environment. The equilibrium water content in maltitol that produced stables capsules was approximately 14% water content for gelatin capsules and approximately 13% water content for HPMC capsules.

OC[C@@H](O)[C@@H](O[C@H]1O[C@H](CO)[C@@H](O)[C@H](O)[C@H]1O)[C@H](O)[C@@H](O)CO [maltitol, Maltitol]
equilibrium water content in maltitol that produced stable capsules (HPMC capsules): approximately 13%
equilibrium water content in maltitol that produced stable capsules (gelatin capsules): approximately 14%
